Test results as given in patent US4703057A, “Beta-blocking thiochroman derivatives, compositions and method of use therefor” (ADIR Et Compagnie, priority 1985, dated 1987).
Several values for one entry are separate records, joined by “and”; a condition that tells them apart may be missing. Equal entries are not always repeated. Where two headings read alike, the source gives them in different places.

Target: beta1 (right auricle of rats, stimulated by isoprenaline) (Rattus norvegicus, UniProt P18090)
Settings: for log (x - 1): Van Rossum's table; for Kb: agonist isoprenaline; for type of antagonism towards isoprenaline: simple displacement of curves to the right
[1] = antagonist concentration 10^-8 M
[2] = pA2 (overall), n = 11, all antagonist concentrations
[3] = pA2, single preparation, antagonist concentration 10^-8 M
[4] = antagonist concentration 3 × 10^-8 M
[5] = antagonist concentration 3 × 10^-9 M

Sequence of beta1 (right auricle of rats, stimulated by isoprenaline) (P18090 whole entry): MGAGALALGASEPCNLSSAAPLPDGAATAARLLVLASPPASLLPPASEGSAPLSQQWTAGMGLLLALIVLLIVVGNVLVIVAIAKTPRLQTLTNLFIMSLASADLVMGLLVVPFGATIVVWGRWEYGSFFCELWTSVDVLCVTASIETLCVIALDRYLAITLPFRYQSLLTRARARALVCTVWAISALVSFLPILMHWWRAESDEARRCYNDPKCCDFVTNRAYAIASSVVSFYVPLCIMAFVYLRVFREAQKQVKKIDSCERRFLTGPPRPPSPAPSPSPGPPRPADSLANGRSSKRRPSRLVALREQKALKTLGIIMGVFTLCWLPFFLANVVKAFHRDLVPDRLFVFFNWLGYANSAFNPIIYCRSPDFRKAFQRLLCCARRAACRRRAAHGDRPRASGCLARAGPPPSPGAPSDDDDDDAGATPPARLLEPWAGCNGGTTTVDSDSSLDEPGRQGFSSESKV

## CC(C)(C)NCC(O)COc1cccc2c1SCCC2O (centres unmarked) [Compound of the formula I, 1-tert.-butylamino-3-(4-hydroxy-8-thiochromanyloxy)-2-propanol]
[1]
  x (displacement of the curve): 37.5 mm and 38 mm and 31 mm
  log (x - 1): 1.22 and 1.24 and 0.99
[2]
  Kb: 0.575 nM
[3]
  Kb: 0.603 nM and 0.575 nM and 1.02 nM
Pharmacological tests in vitro, in words
  beta1-adrenolytic activity: very high beta1 -adrenolytic activity
Relative to tertatolol
  beta1-adrenolytic / beta1-antagonistic activity relative to tertatolol: twice that of tertatolol
  type of antagonism towards isoprenaline: competitive type

## CC(C)(C)NCC(O)COc1cccc2c1SCCC2 (centres unmarked) [Tertatolol, 1-tert.-butylamino-3-(8-thiochromanyloxy)-2-propanol]
[4]
  x (displacement of the curve): 35 mm and 32.5 mm
  log (x - 1): 1.13 and 1.05
[5]
  x (displacement of the curve): 25.5 mm and 27 mm and 19.5 mm
  log (x - 1): 0.78 and 0.84 and 0.54
[1]
  x (displacement of the curve): 41 mm and 46 mm and 47 mm
  log (x - 1): 1.35 and 1.52 and 1.55
Antagonist concentration 10^-9 M
  x (displacement of the curve): 6 mm and 7 mm and 3.5 mm
[2]
  Kb: 0.912 nM
pA2, single preparation, antagonist concentration 3 × 10^-8 M
  Kb: 2.24 nM and 2.69 nM
pA2, single preparation, antagonist concentration 3 × 10^-9 M
  Kb: 0.501 nM and 0.437 nM and 0.871 nM
[3]
  Kb: 0.447 nM and 0.302 nM and 0.282 nM
Relative to propanolol
  times more powerful than propanolol: 6 times
  type of antagonism towards isoprenaline: competitive type
